5 substances from patent publication US7291341B2, “Stresscopins and their uses” (The Board of Trustees of the Leland Stanford Junior …, priority 2000, dated 2007) can be followed below.

Ends that are not written are not given here. Some results are limits rather than exact numbers.

Assay [1] has as its system cultured rat anterior pituitary cells. Briefly: ACTH release by cultured anterior pituitary cells in vitro. The following applies: hormones 1 nM, 2 h at 37° C., FIG. 4a. Type of assay: cell-based. Here is the method: (§1) FIG. 4. […] ACTH contents in culture media and serum were determined using a radioimmunoassay. For in vivo studies, male rats were injected i.p. with test peptides (2 nmoles/kg B.W.) and sacrificed 30 mm later. Data are mean SEM (N=4). FIG. 4c. Anti-edema response regulated by stresscopins. Stresscopin 1 (20 nmoles/kg), stresscopin 2 (100 nmoles/kg), and related hormones (20 nmoles/kg) suppress heat-induced paw edema formation in anaesthetized rats (N=6). FIG. 4d. Cumulative food intake in mice treated with stresscopin 1 (left panel, N=6) and stresscopin 2 (right panel, N=4) peptides and other hormones at 2, 4, and 8 h after treatment. FIG. 4e. Reduction of gastric emptying by stresscopin 1 (blank bars, 8 nmoles/kg; hatched bars, 80 nmoles/kg), stresscopin 2 (blank bars, 80 nmoles/kg; hatched bars, 200 nmoles/kg), and related hormones (blank bars, 8 nmoles/kg; hatched bars, 80 nmoles/kg) at 2 h after hormone treatment (N=6). The rates of gastric emptying were calculated by the formula (wet weight of stomach at 2 h after treatment/wet weight of stomach in fed animals sacrificed at 0 h). SCP1 is stresscopin 1; SCP2 is stresscopin 2; UCN is urocortin; SCP1 (11-43) is truncated stresscopin 1 with the first 10 amino acids deleted.
(§2) In Vivo and in Vitro assay of pituitary ACTH releasing activity. Anterior pituitaries were obtained from 6-week-old male Sprague-Dawley rats. […]

The subject of assay [2] is gastric emptying in food-restricted mice. In words: Gastric emptying in food-restricted mice. The following applies: i.p., 2 h after hormone treatment, FIG. 4e. Type of assay: in vivo. As for the experimental part: as §1
Effects on gastric emptying in food-restricted mice. To study the effects on gastric emptying, mice were deprived of food for 16 h with free access to water. The fasted mice were then given free access to preweighed pellets for 90 min. and were injected i.p. with different hormones or saline. The mice were deprived of food again after i.p. injection and sacrificed by cervical dislocation at 2 h. after injection. The stomach was excised at point of the pylorus and cardia before determination of its wet weight. Gastric emptying was calculated by comparison with stomach weight of control mice sacrificed at 0 h. following injection. See, Asakawa, A. et al. (1999) Gastroenterology 116:1287-1292.

The test system of assay [3] is recombinant CRHR2. Briefly: cAMP production by 293T cells transfected with recombinant CRHR2 (two isoforms). The following applies: for cAMP production mediated by recombinant CRHR2: 293T cells transiently transfected, two isoforms of CRHR2 (FIGS. 3c-3d). Type of assay: cell-based. Here is the method: (§3) FIG. 3. […] Hormonal stimulation of cAMP production by FIG. 3a. CRHR2-containing rat cardiac A7r5 cells, FIG. 3b. CRHR1-containing human retinoblastoma Y79 cells, FIG. 3c. recombinant CRHR2, FIG. 3d. recombinant CRHR2 and, FIG. 3e. recombinant CRHR1. Cells incubated with the test peptide or vehicle were harvested at 16 h after treatment and heated to 95° C. for 5 mm to inactivate phosphodiesterase activity before cAMP measurement. FIG. 3f. […] Data are the mean SEM (N=4). SCP1-0.1, stresscopin 1 (0.1 nM); SCP1, stresscopin 1 (1 nM); SCP1(2-43), truncated stresscopin 1 with the first amino acid deleted; SCP1 (3-43), truncated stresscopin 1 with 2-amino-acid deletion; SCP1 (4-43), truncated stresscopin 1 with 3-amino-acid deletion; SCP1 (5-43), truncated stresscopin 1 with 4-amino-acid deletion; SCP1 (6-43), truncated stresscopin 1 with 5-amino-acid deletion; SCP1-NA-0.1, full-length stresscopin 1 devoid of amidation at the C-terminus (0.1 nM); SCP1-NA, full-length stresscopin 1 devoid of amidation at the C-terminus (1 nM); UCN, urocortin. FIGS. 3g and 3h. […] Data are mean SEM (N=3).
Sequence of recombinant CRHR2 (Q13324 35-411 limits assumed): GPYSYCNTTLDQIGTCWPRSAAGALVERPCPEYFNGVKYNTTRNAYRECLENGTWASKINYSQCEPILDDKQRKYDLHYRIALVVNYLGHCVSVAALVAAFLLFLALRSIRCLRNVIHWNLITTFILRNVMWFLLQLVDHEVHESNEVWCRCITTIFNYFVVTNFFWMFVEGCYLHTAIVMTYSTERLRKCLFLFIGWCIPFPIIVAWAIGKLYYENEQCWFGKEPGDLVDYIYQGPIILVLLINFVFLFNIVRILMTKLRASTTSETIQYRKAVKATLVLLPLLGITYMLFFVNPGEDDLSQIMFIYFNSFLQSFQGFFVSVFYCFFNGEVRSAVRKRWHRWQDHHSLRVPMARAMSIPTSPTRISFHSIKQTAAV
(§4) The receptor cDNA fragments were subcloned into the pcDNA3.1/Zeo vector with a prolactin signal peptide for secretion and triple FLAG/M1 epitope cassette upstream of the multiple cloning site. […] For the estimation of adenylate cyclase activation by stresscopin and related hormones, transfected cells were seeded at a concentration of 100,000 cell/well in 48 well culture plates in DMEM/F12 medium containing 0.1% BSA and 2.5mM IBMX for 16 h. Contents of cAMP in whole cell lysate were determined using a cAMP radioimmunoassay.

Assay [4] addresses T1, recombinant CRHR1 (Homo sapiens, UniProt P34998).
T1 construct: prolactin signal peptide (N); expressed in transfected cells; host or cells: human 293T cells, pcDNA3.1/Zeo vector
T1 sequence (P34998 24-415): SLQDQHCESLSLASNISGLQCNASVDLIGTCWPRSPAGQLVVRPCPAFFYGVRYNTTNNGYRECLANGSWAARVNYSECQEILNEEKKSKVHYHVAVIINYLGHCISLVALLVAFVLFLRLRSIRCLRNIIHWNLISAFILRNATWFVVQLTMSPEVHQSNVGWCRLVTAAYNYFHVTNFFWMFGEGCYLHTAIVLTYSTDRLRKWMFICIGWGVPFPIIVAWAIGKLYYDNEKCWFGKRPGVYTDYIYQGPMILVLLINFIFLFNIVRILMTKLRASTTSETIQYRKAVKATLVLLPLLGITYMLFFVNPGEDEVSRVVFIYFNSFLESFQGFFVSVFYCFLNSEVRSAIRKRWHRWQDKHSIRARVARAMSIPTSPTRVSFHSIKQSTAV
Briefly: cAMP production by 293T cells transfected with recombinant CRHR1. It counts as cell-based. To be noted: 293T cells transiently transfected (FIG. 3e).
Procedure: (§5) CRHR1-containing human retinoblastoma Y79 cells, FIG. 3c. recombinant CRHR2, FIG. 3d. recombinant CRHR2 and, FIG. 3e. recombinant CRHR1. Cells incubated with the test peptide or vehicle were harvested at 16 h after treatment and heated to 95° C. for 5 mm to inactivate phosphodiesterase activity before cAMP measurement. […] Data are the mean SEM (N=4). SCP1-0.1, stresscopin 1 (0.1 nM); SCP1, stresscopin 1 (1 nM); SCP1(2-43), truncated stresscopin 1 with the first amino acid deleted; SCP1 (3-43), truncated stresscopin 1 with 2-amino-acid deletion; SCP1 (4-43), truncated stresscopin 1 with 3-amino-acid deletion; SCP1 (5-43), truncated stresscopin 1 with 4-amino-acid deletion; SCP1 (6-43), truncated stresscopin 1 with 5-amino-acid deletion; SCP1-NA-0.1, full-length stresscopin 1 devoid of amidation at the C-terminus (0.1 nM); SCP1-NA, full-length stresscopin 1 devoid of amidation at the C-terminus (1 nM); UCN, urocortin. […] Data are mean SEM (N=3).

In assay [5] the target is T2, CRHR1-containing human retinoblastoma Y79 cells (Homo sapiens, UniProt P34998).
T2 construct: cells constitutively expressing CRH receptors; host or cells: Y79 (human retinoblastoma)
T2 sequence (P34998 24-415): T1 sequence (P34998 24-415)
Briefly: cAMP production in CRHR1-containing human retinoblastoma Y79 cells. Type of assay: cell-based. The following applies: harvested 16 h after treatment (FIG. 3b).
Procedure: as §5

The subject of assay [6] is fasting mice. In words: Food intake and body weight in food-restricted mice. It counts as in vivo. To be noted: for cumulative food intake: i.p., fasting mice, 2, 4 and 8 h after treatment, FIG. 4d; for Average body weight change/mouse / Average food intake/mouse: fasted animals, 2 h after treatment, N = 5. As for the experimental part:
as §1
Food intake and body weight in food-restricted mice. Six week-old male mice (20-25 g b.w.) of the inbreed Balb/C strain were housed individually in a regulated environment with 12L/12D light cycle. Before feeding tests, mice were deprived of food for 16 h with free access to water and injected with testing reagents i.p. at 10 AM the following day. Food intake was measured by placing preweighed pellets in the cage and weighing the uneaten pellets at 2, 4 and 8 h after injection. Body weight was also monitored at 0, 2, 4, and 8 h.

Assay [7] concerns heat-induced paw edema in anaesthetized rats. In words: Heat-induced paw edema formation in anaesthetized rats. Type of assay: in vivo, rat. To be noted: i.p., FIG. 4c. As for the experimental part:
as §1
Effects on heat-induced paw edema formation in anaesthetized rats. The anti-inflammatory effect of stresscopin and related peptides were assayed using an established model (Turnbull et al. (1996) Euro. J. Pharmacol. 303:213-216). Briefly, 5-week-old male Sprague-Dawley rats were injected with […] of the testing peptide and anaesthetized with ketamine (100 mg/Kg). Thirty min. later, paw edema was induced following a one minute exposure to hot water at 58° C. The animals were sacrificed 30 min later. Both paws were removed at the ankle joint and weighed. The degree of edema was estimated as the differences in weight gain between the heated and unheated paw divided by the weight of the unheated paw.

The subject of assay [8] is ACTH release in intact male rats. Briefly: ACTH secretion in vivo. Also noted: species or system rat. The following applies: i.p. 2 nmoles/kg, 30 min, FIG. 4b. As for the experimental part:
as §1, §2

Assay [9] concerns the target T3, CRHR2-containing rat cardiac A7r5 cells (Rattus norvegicus, UniProt P47866).
T3 construct: cells constitutively expressing CRH receptors; host or cells: A7r5 (rat)
Briefly: cAMP production in CRHR2-containing rat cardiac A7r5 cells. It counts as cell-based. To be noted: harvested 16 h after treatment (FIG. 3a). As for the experimental part: as §3, §4

The test system of assay [10] is CRH R2. In words: Receptor binding assay, displacement of 125I-urocortin. The following applies: 293T cells transfected with CRHR2 isoforms (FIGS. 3g, 3h). Here is the method:
as §3
Receptor Binding assay. […] After 60 min incubation at 37° C., the cell-associated ligand was estimated following centrifugation and repeated washing. Radioactivity of samples was determined in a GENESYS-counter (Laboratory Technologies, Inc., Maple Park, Ill.).

T3 sequence (P47866 1-431 isoform P47866-2): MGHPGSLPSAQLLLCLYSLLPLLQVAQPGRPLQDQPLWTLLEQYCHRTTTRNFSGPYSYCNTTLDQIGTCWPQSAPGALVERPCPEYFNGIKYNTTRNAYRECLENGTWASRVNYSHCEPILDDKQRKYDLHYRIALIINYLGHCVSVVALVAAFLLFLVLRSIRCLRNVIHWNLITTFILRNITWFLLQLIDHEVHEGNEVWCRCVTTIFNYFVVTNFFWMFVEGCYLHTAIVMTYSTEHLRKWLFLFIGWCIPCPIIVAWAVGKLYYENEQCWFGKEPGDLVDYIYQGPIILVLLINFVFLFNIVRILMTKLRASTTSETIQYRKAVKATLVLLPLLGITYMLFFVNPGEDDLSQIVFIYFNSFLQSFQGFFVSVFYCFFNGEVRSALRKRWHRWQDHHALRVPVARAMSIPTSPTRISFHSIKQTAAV

Take “urocortin: 40 amino acid peptide, ligand for the CRH receptors; purchased from Sigma Biochemicals (DNPSLSIDLTFHLLRTLLELARTQSQRERAEQNRIIFDSV; ends and bridges not checked; UniProt P55089 83-122, looked up) [reference compound]”: in assay [1], the “ACTH release in vitro” value is “stimulated the release of ACTH”. In assay [2], the gastric emptying activity result is “suppressed gastric emptying activity”. Besides, the “cAMP production mediated by recombinant CRHR2” value in [3] is reported as “stimulated cAMP production”. Moreover, the “cAMP production mediated by recombinant CRHR1” value in assay [4] is “stimulated cAMP production”. The cAMP production result in assay [5] and in assay [9] was “stimulated cAMP production” in each case. Besides, in [6], the cumulative food intake entry is recorded as “dose-dependently decreased food intake”. Further, in assay [7] (20 nmoles/kg), the heat-induced edema formation result is reported as “suppressed heat-induced edema formation”. In assay [8], the “ACTH release in vivo” value is given as “stimulated the release of ACTH”.

In the case of “SCP1-NA: full-length stresscopin 1 devoid of amidation at the C-terminus (HPGSRIVLSLDVILGLLQILLEQARARAAREQATTNARILARV-OH)”, in [3] (compared to amidated stresscopin 1), the “reduction in ability to stimulate cAMP production” value was above 50 fold.

With “CRH: corticotropin releasing hormone, 41-amino acid peptide; purchased from Sigma Biochemicals [reference compound]”, the “ACTH release in vitro” value in assay [1] is reported as “stimulated the release of ACTH”. Further, in assay [2], the gastric emptying activity entry is listed as “suppressed gastric emptying activity”. Further, the “cAMP production mediated by recombinant CRHR2” value in assay [3] is listed as “stimulated cAMP production”. In addition, the cumulative food intake result in [6] was “dose-dependently decreased food intake”. Further, the heat-induced edema formation entry in assay [7] (20 nmoles/kg) was “suppressed heat-induced edema formation”. For the same substance, the “ACTH release in vivo” value in assay [8] is “stimulated the release of ACTH”. Moreover, the cAMP production result in [9] is on record as “stimulated cAMP production”.

In the case of “stresscopin 1: mature 43 amino acid peptide, SEQ ID NO:3, derived from a 112 amino acid precursor; selective CRH-R2 ligand (HPGSRIVLSLDVILGLLQILLEQARARAAREQATTNARILARV; listed as Homo sapiens)”, the “ability to bind CRHR2 (displacement of labeled urocortin)” value in [10] is recorded as “bind”. Further, the gastric emptying activity entry in assay [2] is recorded as “suppressed gastric emptying activity”. For the same substance, the “cAMP production mediated by recombinant CRHR2” value in assay [3] is recorded as “potent agonists”. Besides, the “higher potency as compared to stresscopin 2 and the pufferfish peptide” value in assay [3] (activation of type-2 CRH receptors, cAMP) is recorded as above 10 fold. The cAMP production result in [5] is listed as “ineffective”. Also, in [6] (20 nM), the “Average body weight change/mouse” value stood at 0.31 ± 0.14 grams and the Average food intake/mouse amounted to 0.185 grams. Besides, the cumulative food intake result in [6] is “dose-dependently decreased food intake”. The heat-induced edema formation entry in assay [7] (20 nmoles/kg) is “suppressed heat-induced edema formation”. Also, the cAMP production entry in assay [9] is given as “stimulated cAMP production”.

Consider “stresscopin 2: mature peptide of 40 amino acids, SEQ ID NO:6, derived from a 161 amino acid precursor protein (TKFTLSLDVPTNIMNLLFNIAKAKNLRAQAAANAHLMAQI; listed as Homo sapiens)”, for which the “ability to bind CRHR2 (displacement of labeled urocortin)” value in [10] is given as “bind”. Also, the gastric emptying activity result in assay [2] is “suppressed gastric emptying activity”. The “cAMP production mediated by recombinant CRHR2” value in assay [3] is recorded as “potent agonists”. In assay [6] (2 nM), the “Average body weight change/mouse” value was −0.19 ± 0.24 grams and the Average food intake/mouse turned out to be 0.176 grams. In addition, in [6] (20 nM), the “Average body weight change/mouse” value is 0.11 ± 0.1 grams and the Average food intake/mouse was 0.152 grams. For the same substance, the cumulative food intake entry in assay [6] was “dose-dependently decreased food intake”. Further, in assay [7] (100 nmoles/kg), the heat-induced edema formation entry is “suppressed heat-induced edema formation”.
